Experimental data from article PMC4368200, “Triclabendazole Sulfoxide Causes Stage-Dependent Embryolethality in Zebrafish and Mouse In Vitro” (PLoS ONE, 2015).
Where two headings read alike, the source gives them in different places. Marks after values point to notes of the source that are not given here.

Experiments:
[1] = Plasma Cmax in humans after therapeutical TCBZ dose (literature); format: in vivo; conditions: 10 mg/kg
[2] = test system: rat embryos explanted at GD 9.5; assay: Postimplantation whole embryo culture (postWEC); parameters: species or system Sprague Dawley rats; key to Yolk sac circulation (median): 1 = few/abnormal vessels, 2 = delayed, 3 = complete vascularization; key to Morphological score: sum of structure scores; higher = more advanced differentiation; conditions: for Crown-rump length / Dysmorphogenic embryos / Morphological score / Somites number / Yolk sac circulation (median): 48 h; for postWEC LOAEC / postWEC NOAEC: GD 9.5-11.5, 48 h; for Teratogenic/dysmorphogenic potency, times lower than ABZ: postimplantation rodent embryos
Method: Nulliparous female rats, which were checked to be in the oestrus phase of the oestrous cycle, were housed with adult males (1:1) for 4 h, considering 2 h of light and 2 h of darkness. Mating was confirmed by the presence of sperm in vaginal smear, and the following 24 h were considered as gestational day 0 (GD 0).
Rat embryos were explanted and evaluated as described before with some variations. Briefly, embryos were explanted at GD 9.5 under sterile conditions. Two embryos were incorporated in flasks filled with 3.5 mL of culture medium which contained 20% of rat serum and 80% of serum mixture (Biochrom AG; Berlin, Germany). TCBZ, TCBZSO, ABZ and ABZSO were dissolved in dimethyl sulfoxide (DMSO; Sigma Aldrich Spain) and added to the culture medium to a final DMSO concentration of 0.1%. Culture flasks were oxygenated at the beginning of the culture with a gas mixture containing 12% O2 and after 38 h with a gas mixture containing 50% O2. Embryos were cultured at a temperature of 38°C, under rotation at a speed of 25 rpm (Noria R, Ovan Spain) for 48 h. After this period, embryos presenting yolk sac circulation and heartbeat were considered alive and were selected for further evaluation. The yolk sac circulation was evaluated according to the level of formation of blood vessels, giving a score of 1 in the cases in which few vessels were observed or the vascularization was abnormal, a score of 2 when a delay in vascularization was observed and 3 for complete vascularization, as previously described in [35]. Growth evaluation was assessed by crown-rump length and differentiation was evaluated by counting the number of somites and the morphological score. This score is the sum of the scores given to several embryonic structures depending on their differentiation stage, corresponding higher values with higher stages of differentiation. Furthermore, the percentage of dysmorphogenesis was calculated according to [36].
For the postWEC experiments, the selected concentrations were 140 μM, 278 μM and 556 μM for TCBZ and 267 μM, 666 μM and 932 μM for TCBZSO. The tested concentrations for ABZ analysis were 0.4 μM, 1.1 μM and 1.9 μM and for ABZSO were 3.4 μM, 9 μM, 12 μM, 14 μM and 16 μM.

[3] = parameters: method as in PMID 3824395; conditions: 200mg/kg dose; cited from earlier work
[4] = parameters: method as in PMID 20128898; conditions: sheep, TCBZ 10 mg/kg; calculated from ref 41; read-out: TCBZSO Cmax; cited from earlier work
[5] = parameters: method as in PMID 21337234; conditions: cows, 12 mg/kg dose; calculated from ref 39; read-out: TCBZSO Cmax; cited from earlier work
[6] = parameters: method as in PMID 7905812; conditions: rabbits, single 10 mg/kg TCBZ dose; transformed to μM from ref 40; read-out: TCBZSO maximum plasma concentration (Cmax); cited from earlier work

Question: For `CSc1nc2cc(Cl)c(Oc3cccc(Cl)c3Cl)cc2[nH]1` [TCBZ, 5-chloro-6-(2,3-dichlorophenoxy)-2-(methylthio)benzimidazole], which “Plasma concentration, times lower than triclabendazole sulfoxide” value [1] is on record?
Answer: approximately 30 times

Question: What about the Crown-rump length ([2]; 140 μM) of the same compound?
Answer: 3.5 ± 0.2 mm

Question: And the Dysmorphogenic embryos ([2]; 140 μM)?
Answer: 0%

Question: And the Morphological score ([2]; 140 μM)?
Answer: 39.0 ± 1.5

Question: And the Somites number ([2]; 140 μM)?
Answer: 26.9 ± 1.1

Question: And the “Yolk sac circulation (median)” value ([2]; 140 μM)?
Answer: 3.0

Question: What about the “Frequency of dysmorphogenesis: Branchial bars” value ([2]; 278 µM) of the same compound?
Answer: 25%

Question: And the “Frequency of dysmorphogenesis: Flexion” value ([2]; 278 µM)?
Answer: 12.5%

Question: What about the “Frequency of dysmorphogenesis: Head” value ([2]; 278 µM) of the same compound?
Answer: 12.5%

Question: What about the “Frequency of dysmorphogenesis: Otic vesicles” value ([2]; 278 µM) of the same compound?
Answer: 12.5%

Question: And the “Frequency of dysmorphogenesis: Yolk sac” value ([2]; 278 µM)?
Answer: 62.5%

Question: What about the Crown-rump length ([2]; 278 μM) of the same compound?
Answer: 3.2 ± 0.5 mm

Question: What about the Dysmorphogenic embryos ([2]; 278 μM) of the same compound?
Answer: 62.5 ^* %

Question: And the Morphological score ([2]; 278 μM)?
Answer: 35.1 ± 5.9

Question: And the Somites number ([2]; 278 μM)?
Answer: 25.7 ± 2.0

Question: And the “Yolk sac circulation (median)” value ([2]; 278 μM)?
Answer: 1.0 ^*

Question: And the “Frequency of dysmorphogenesis: Branchial bars” value ([2]; 556 µM)?
Answer: 100%

Question: And the “Frequency of dysmorphogenesis: Flexion” value ([2]; 556 µM)?
Answer: 50%

Question: What about the “Frequency of dysmorphogenesis: Head” value ([2]; 556 µM) of the same compound?
Answer: 75%

Question: And the “Frequency of dysmorphogenesis: Heart” value ([2]; 556 µM)?
Answer: 12.5%

Question: What about the “Frequency of dysmorphogenesis: Optic vesicles” value ([2]; 556 µM) of the same compound?
Answer: 37.5%

Question: And the “Frequency of dysmorphogenesis: Yolk sac” value ([2]; 556 µM)?
Answer: 100%

Question: What about the Crown-rump length ([2]; 556 μM) of the same compound?
Answer: 2.6 ± 0.6 mm

Question: What about the Dysmorphogenic embryos ([2]; 556 μM) of the same compound?
Answer: 100%

Question: What about the Morphological score ([2]; 556 μM) of the same compound?
Answer: 21.0 ± 3.0

Question: What about the “Yolk sac circulation (median)” value ([2]; 556 μM) of the same compound?
Answer: 1.0 ^*

Question: And the “postWEC LOAEC” value [2]?
Answer: 278 µM

Question: What about the “postWEC NOAEC” value [2] of the same compound?
Answer: 140 µM

Question: And the “Teratogenic/dysmorphogenic potency, times lower than ABZ” value [2]?
Answer: approximately 250 times

Question: And the “Teratogenic/dysmorphogenic potency, times lower than ABZ” value ([2]; listed as Triclabendazole)?
Answer: 250 times

Question: And the Teratogenicity in vivo [3]?
Answer: not teratogenic at a 200mg/kg dose [23]

Question: What does the source list for `C[S+]([O-])c1nc2cc(Oc3cccc(Cl)c3Cl)c(Cl)cc2[nH]1` (centres unmarked) [TCBZSO, Triclabendazole sulfoxide]?
Answer: Cmax [4]: 37.3 µM; Crown-rump length ([2]; 267 μM): 3.4 ± 0.4 mm; Dysmorphogenic embryos ([2]; 267 μM): 0%; Morphological score ([2]; 267 μM): 37.9 ± 2.8; Somites number ([2]; 267 μM): 26.6 ± 1.6; Yolk sac circulation (median) ([2]; 267 μM): 3.0; Frequency of dysmorphogenesis: Branchial bars ([2]; 666 µM): 11.1%; Frequency of dysmorphogenesis: Head ([2]; 666 µM): 33.3%; Frequency of dysmorphogenesis: Optic vesicles ([2]; 666 µM): 33.3%; Frequency of dysmorphogenesis: Yolk sac ([2]; 666 µM): 33.3%; Crown-rump length ([2]; 666 μM): 3.1 ± 0.7 mm; Dysmorphogenic embryos ([2]; 666 μM): 55.6 ^* %; Morphological score ([2]; 666 μM): 30.8 ± 7.1; Somites number ([2]; 666 μM): 25.1 ± 2.1; Yolk sac circulation (median) ([2]; 666 μM): 3.0 ^*; Frequency of dysmorphogenesis: Branchial bars ([2]; 932 µM): 100%; Frequency of dysmorphogenesis: Flexion ([2]; 932 µM): 87.5%; Frequency of dysmorphogenesis: Head ([2]; 932 µM): 75%; Frequency of dysmorphogenesis: Limbs ([2]; 932 µM): 12.5%; Frequency of dysmorphogenesis: Optic vesicles ([2]; 932 µM): 62.5%; Frequency of dysmorphogenesis: Otic vesicles ([2]; 932 µM): 25%; Frequency of dysmorphogenesis: Yolk sac ([2]; 932 µM): 100%; Crown-rump length ([2]; 932 μM): 2.3 ± 0.5 mm; Dysmorphogenic embryos ([2]; 932 μM): 100 ^* %; Morphological score ([2]; 932 μM): 20.3 ± 2.7; Yolk sac circulation (median) ([2]; 932 μM): 1.0 ^*; postWEC LOAEC [2]: 666 µM; postWEC NOAEC [2]: 267 µM; Teratogenic potency, times less potent than parent compound TCBZ ([2]; postWEC): 2.5 times; Cmax [5]: 71.3 µM; Cmax [6]: 33 µM
